Measurements from the METLIN SMRT retention time set (Domingo-Almenara et al. 2019).

Test: gradient 5% acetonitrile 3 min, to 50% in 2 min, to 85% in 15 min, held 3 min, 100 µL/min
Details: column: Zorbax Extend-C18 2.1 x 50 mm; eluents: water / acetonitrile, 0.1% formic acid
Outline: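 Retention times come from adduct peaks that were picked computationally and then checked by hand. The standards, pure and pooled in mixtures of ~100 molecules, were run on a Zorbax Extend-C18 column (2.1 × 50 mm, 1.8 μm) at 100 μL/min with water and acetonitrile, each with 0.1% formic acid. Detection was by quadrupole time-of-flight mass spectrometry in positive and negative ionization mode, with a dead volume of 40 μL and a dwell volume of 900 μL.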

| RP-LC retention time | SMILES |
| --- | --- |
| 1100 s | Cc1ccc(Cn2cc(-c3noc(-c4cccc(N(C)C)c4)n3)nn2)cc1 |
| 1030 s | Cc1ccc(-c2nc3cnccn3c2Nc2ccc(Br)cc2)cc1 |
| 1320 s | CCCOc1nc2ccccc2nc1N1CCCC(C(=O)Nc2ccccc2OC)C1 (centres undefined) |
| 615 s | CC1CCN(CCCNC(=O)C(=O)Nc2ccc3nc4n(c(=O)c3c2)CCCCC4)CC1 |
| 715 s | Cc1[nH]c(C(=O)N2CCC(CC(=O)NCCCOC(C)C)CC2)c(C)c1C |
| 626 s | CCOC(=O)c1[nH]c(C)c(CCC(=O)N2CCC(C(=O)NCCCN3CCCC3=O)CC2)c1C |
| 684 s | Cc1cc(C)c(S(=O)(=O)N2CCC3(CC2)c2nccn2CCN3C)c(C)c1 |
| 1130 s | CC(C)c1cccc(C(C)C)c1N1C(=O)c2ccc(O)cc2C1=O |
| 670 s | CN(C)c1nc2ncn3c(=O)n(CC(=O)Nc4ccccc4)nc3c2s1 |
| 666 s | CCOC(=O)c1cccc(Nc2c(C(=O)N3CCCCC3C)cnc3nc(C)ccc23)c1 (centres undefined) |
| 905 s | Cc1ccc(CNC(=O)CN2C(=O)C3CCCCN3c3ccc(S(=O)(=O)N4CCCC4)cc32)o1 (centres undefined) |
| 1120 s | Cc1cccc(N2CCN(C(=O)c3ccc(-c4csc(C5CC5)n4)cc3)CC2C)c1 (centres undefined) |
| 820 s | O=C(NC1CCCCCC1)C1CCN(S(=O)(=O)c2cc(C(=O)N3CCCC3)cs2)CC1 |
| 687 s | O=C(Nc1cccc(-c2cn3cccnc3n2)c1)c1cccc([N+](=O)[O-])c1 |
| 565 s | CC(=O)N1CCC2(CC1)N(CC1CC1)C(=O)CS2=O (centres undefined) |
| 607 s | COc1ccc(-c2cn3c(CC(=O)N4CCOCC4)csc3n2)cc1OC |
| 577 s | CC(C)CN1CCN(C(=O)c2cn3cc(Cl)ccc3n2)CC1 |
| 662 s | CC1CN(C2CCCCC2)c2nc3c(c(=O)n(CCN4CCOCC4)c(=O)n3C)n2C1 (centres undefined) |
| 782 s | Cc1noc(-c2cc(=O)n(CC(=O)NC3CCCC3)c3ccccc23)n1 |
| 735 s | COC(=O)c1cnc2nc(C)ccc2c1Nc1cc(OC)cc(OC)c1 |
| 685 s | Cc1c(C(=O)N2CCN(C(C)C)CC2)cnn1-c1cc(-c2nc(C(C)(C)C)no2)ccn1 |
| 957 s | c1ccc(-c2nnc(Cc3nc(-c4ccc5c(c4)OCO5)no3)o2)cc1 |
| 871 s | Cc1noc2nc(C)n(CC(=O)Nc3cccc4c3CCCC4)c(=O)c12 |
| 1120 s | Cc1cccc(NC(=O)N2CCN(c3nc4ccccc4nc3C(F)(F)F)CC2)c1 |
| 689 s | O=C(c1ccoc1)N1CCCCC1c1nncn1Cc1ccccc1 (centres undefined) |

| RP-LC retention time | SMILES |
| --- | --- |
| 782 s | Cc1cccc(N(C(=O)c2cnc3n(c2=O)CCS3)C2CCCCC2)c1 |
| 768 s | Cc1noc(C2CN(C(=O)Nc3ccc(C)c(C)c3)CC23CCOCC3)n1 (centres undefined) |
| 776 s | O=C(NC1CCN(c2cc(-c3cccs3)[nH]n2)C1)c1ccc(Cl)cc1 (centres undefined) |
| 1030 s | Cc1c(C(=O)N2CCCC2)cnn1-c1cc(-c2nc(C(C)(C)C)no2)ccn1 |
| 850 s | CC(C)CNC(=O)c1n[nH]c2c1CCCCCC2 |
| 816 s | CCN(C(=O)C1CCCN1S(=O)(=O)c1cc2c(cc1Cl)NC(=O)CO2)c1cccc(C)c1 (centres undefined) |
| 748 s | Cn1c(=O)n(CC(=O)O)c(=O)c2c1nc1n2CCN1c1ccc(Cl)cc1 |
| 745 s | COc1ccccc1CNC(=O)Cn1nc2c(N3CCC(C)CC3)nccn2c1=O |
| 820 s | O=C(Nc1cnc(N2CCOCC2)nc1)c1ccc(F)c(Cl)c1 |
| 698 s | Cc1oc(-c2ccc(C(=O)NCCN3CCCC3)cc2)nc1COc1ccccc1 |
| 770 s | Cc1nn(C)c(C)c1CCCN(C)C(=O)c1cc2c(s1)N(C)CCCC2 |
| 599 s | CC(=O)N1N=C(c2ccccc2NS(C)(=O)=O)CC1c1ccc2ncccc2c1 (centres undefined) |
| 915 s | CCNc1nc(Nc2cc(F)c(C(=O)N3CCOCC3)cc2OC)ncc1C(F)(F)F |
| 616 s | Cc1ccc(F)cc1S(=O)(=O)N1CCN(c2cnn3c(C)nnc3c2)CC1 |
| 752 s | CN1c2cc(F)ccc2C(=O)NC12CCN(C(=O)Cc1cccc(F)c1)CC2 |
| 997 s | COc1cccc(-c2noc(C3CCCN3C(=O)c3ccc(C)s3)n2)c1 (centres undefined) |
| 903 s | O=C(Nc1nc2ccc(Cl)cc2s1)C1CCN(C(=O)C2Sc3ccccc3NC2=O)CC1 (centres undefined) |
| 785 s | COC1CN(c2cccc(F)c2)C12CCN(Cc1ccc(F)c(F)c1)CC2 (centres undefined) |
| 711 s | COc1ccc(CNC(=O)Cn2c(C)nc3onc(C)c3c2=O)cc1 |
| 714 s | O=C(Nc1cnc(N2CCCCCC2)nc1)C1CC1 |
| 1010 s | Cc1ccc(-c2noc(C3CC(=O)N(c4ccccc4Cl)C3)n2)cc1 (centres undefined) |
| 692 s | Cc1ccc(CNC(=O)C2CCc3sc(C(=O)N(C)C)cc3C2)cc1 (centres undefined) |
| 852 s | O=C(COc1ccc(-c2cnc3ccccc3n2)cc1)Nc1ccccn1 |
| 1020 s | Cc1ccc2c(c1)N(S(C)(=O)=O)CCC(C(=O)Nc1cccc(Cl)c1)O2 (centres undefined) |

The remaining lines, values behind:

| SMILES | RP-LC retention time |
| --- | --- |
| COc1ccc(C2Cn3nnc(C(=O)N4CCC(C(=O)NC5CCCC5)CC4)c3CO2)cc1 (centres undefined) | 769 s |
| CC(C)c1cc(C(=O)NC2CC2)n[nH]1 | 625 s |
| COc1ccc(OCc2noc(CNC(=O)c3cc(-c4ccco4)on3)n2)cc1 | 832 s |
| Cc1ccc(C)c(NC(=O)N2CCC(n3c(C)nc4cccnc43)CC2)c1 | 638 s |
| COc1cc([N+](=O)[O-])ccc1NC(=O)c1cccc(Br)c1 | 1030 s |
| O=C1CCc2cc(OCCCCc3nnnn3C3CCCCC3)ccc2N1 | 880 s |
| CCN1c2ccccc2C(=O)NC12CCN(C(=O)c1ccccc1F)CC2 | 749 s |
| CCCc1cc(N2CCN(C(=O)Cc3cccs3)CC2)nc2nnc(C)n12 | 620 s |
| O=C(NC1CCCCCC1)c1ccc2c(c1)nc1n2CCN(c2ccccc2)C1=O | 804 s |
| Cc1cnc(C(=O)N2CCOCCNC(=O)[C@@H]3CCC[C@@H]32)cn1 | 599 s |
| CC(C)[C@H](NC(=O)CNC(=O)OC(C)(C)C)C(=O)N[C@H](C=O)C(C)C | 749 s |
| CC(C)CN1C(=O)c2cccn2CC1CNC(=O)c1ccco1 (centres undefined) | 672 s |
| COCCNC(=O)C1CCN(c2cnc(N3CCCCCC3)nc2)CC1 | 617 s |
| Cc1cc(C)nc(N2CCN(c3c4c(nc5c(-c6ccccc6)c(C)nn35)CCC4)CC2)n1 | 1210 s |
| CCOC(=O)CCNC(=O)N1CCN(Cc2nnnn2-c2ccc(F)c(F)c2)CC1 | 688 s |
| COCCNC(=O)c1c(C)sc2ccn(Cc3ccc(F)cc3)c(=O)c12 | 749 s |
| Cc1nc(-c2cn(C(C)C)c3ncccc23)sc1C(=O)NCCC(C)C | 1070 s |
| COc1ccc(N2CCN(c3cc(SCC(=O)NCCC(C)C)ncn3)CC2)cc1 | 873 s |
| CN(c1nc(-c2ccc(C(C)(C)C)cc2)nc2ccccc12)C1CCCCC1 | 1130 s |
| Oc1c(C(c2ccc(F)cc2)N2CCN(c3cccc(Cl)c3)CC2)sc2ncnn12 (centres undefined) | 852 s |

| SMILES | RP-LC retention time |
| --- | --- |
| CC(C)Oc1ccccc1CN1CC(c2nc(-c3ccncc3)nn2C)C1 | 590 s |
| COC(=O)c1cc2c(=O)n(-c3nc4ccc(Cl)cc4s3)ccc2nc1C | 1350 s |
| Cn1c(N2CCCC(C(=O)NC3CCN(Cc4ccccc4)CC3)C2)cc(=O)n(C)c1=O (centres undefined) | 576 s |
| COc1ccc(Cl)cc1NC(=O)Cn1c(=O)n(-c2ccc(F)cc2)c(=O)c2c1cc(C)n2C | 938 s |
| O=C(Cn1ccn2nc(-c3ccccc3)c(CO)c2c1=O)Nc1ccc(F)cc1F | 781 s |
| CCCCN1CCN(C(=O)c2cc(-c3ccncc3)cn2Cc2ccccc2C)CC1 | 576 s |
| O=C(N[C@@H]1CN(c2ncccn2)C[C@H]1CO)C1CC=CC1 | 567 s |
| COCCN1C(=O)c2ccccc2C(C(=O)Nc2ccc3[nH]ccc3c2)C12CCCC2 (centres undefined) | 814 s |
| O=C(NC1CCCCC1)C1CCN(c2cn[nH]c(=O)c2)C1 (centres undefined) | 614 s |
| CCOC(=O)N1CCN(c2ncc(S(=O)(=O)c3ccc(C(C)C)cc3)c(N)n2)CC1 | 1030 s |
| O=C(Nc1cc(-c2ccccn2)no1)c1ccoc1 | 713 s |
| O=C(NCc1cccc(Br)c1)C1CCCN(c2ccc(=O)n(-c3cccc(F)c3)n2)C1 (centres undefined) | 899 s |
| Cc1cc(C)n(Cc2ccc(C(=O)N3CCC(c4noc(-c5cccnc5)n4)C3)o2)n1 (centres undefined) | 696 s |
| CCOc1ccc(NC(=O)N2CCC3(CC2)NC(=O)c2ccc(F)cc2N3C)cc1 | 777 s |
| C=CCNC(=O)c1cnn(-c2cc(-c3nc(C(C)(C)C)no3)ccn2)c1C | 1020 s |
| O=C(NCCn1c(-c2ccccc2)nc2cccnc21)NCc1ccc(F)cc1 | 684 s |
| CCOc1ccc(NC(=O)N2CCC3(CC2)NC(=O)c2ccc(Cl)cc2N3CC)cc1 | 874 s |
| CCc1noc(C2(NC(=O)c3ccc(F)c(Cl)c3)CCCCC2)n1 | 1030 s |
| O=C(NCc1cc(F)cc(F)c1)C1CCN(C(=O)c2ncn3c2COC(c2ccc(F)cc2)C3)CC1 (centres undefined) | 802 s |
| CN(C)c1nc2ncn3c(=O)n(CC(=O)NC4CCCC4)nc3c2s1 | 647 s |
